By IC50 is commonly meant the concentration that gives 50% inhibition.

Experiment [1] concerns collagen induced arthritis. Kind of experiment: Rat collagen induced arthritis efficacy model. The format is in vivo. As to conditions: female Lewis rats, PO, bid for 14 days. Here is the method:
Female Lewis rats (≈190 g, Charles River Labs) are immunized with Bovine type II collagen (2 mg/mL) emulsified with an equal volume of adjuvant (aluminum hydroxide). are used. The rats are immunized with approximately […] of the emulsion intradermally on the back near the base of the tail. All animals are re-immunized 7 days later according to the same protocol. The rats begin to develop arthritis (characterized by swelling and redness of one or both ankles) from 12 to 14 days after the first immunization. The rats are equally distributed into five treatment groups at the first signs of arthritis and treatment is initiated with each rat dosed bid for 14 days.
Group 1 Vehicle (1% NaCarboxymethylcellulose+0.25% Tween 80) 1 mL, PO,
• Bid×14 days • Group 2 Test compound, 5 mg/kg, 1 mL, PO, Bid×14 • Group 3 Test compound, 15 mg/kg, 1 mL, PO, Bid×14 • Group 4 Test compound, 30 mg/kg, 1 mL, PO, Bid×14 • Group 5 Prednisolone 10 mg/kg, 1 mL, PO, qd×14 Ankle diameter is measured with calipers 5 days a week and recorded. Data is expressed as the area under the curve (AUC) generated from the composite inflammation scores and statistical analysis performed.

Experiment [2] relates to TNFα. Kind of experiment: Inhibition of TNFα in vitro, LPS/interferon-γ treated mouse peritoneal macrophages, Luminex. Type of experiment: cell-based. As to conditions: Peritoneal macrophage, 50 ng/mL LPS and 10 U/mL interferon-γ, 18 hours, read-out: IC50, suppression of TNFα in vitro. Here is the method:
1 mL thioglycolate broth (5.0 g yeast extract, 15.0 g casitone or trypticase, 5.0 g dextrose, 2.5 g sodium chloride, 0.75 g L-cystine, 0.5 g sodium thioglycolate, 1.0 mg resazurin, and 0.75 g agar in 1.0 L distilled water) are injected into the peritoneal cavity of Balb/C female mice. At day 4 or 5 post-injection the mice are sacrificed and then injected i.p. with 4 mL RPMI-1640 medium (BioWhittaker) and the peritoneal macrophages are withdrawn by syringe.
Mouse peritoneal macrophages are counted with a hemocytometer and adjusted to 5×10^5 cells/well in 96-well plates in RPMI-1640 medium with 10% fetal bovine serum. 200 μL/well is plated in 96-well plates and the cells allowed to settle and adhere to the bottom of the well for at least 3 hours. The test compound or standard p38 kinase inhibitor is pre-treated using a series of 8 concentrations for 1 hour at 37° C. […]
50 μL of cytokine detection antibody is added and incubated for 60 seconds at room temperature on a shaker protected from light at setting 6 and then for 30 minutes at setting 3.3 washes are performed with the Bio-Plex Wash Buffer. […] Standards and samples are read on a Luminex machine. These intensity readings are then converted to picogram/milliliter units based on a 12-point standard curve created in duplicate using a four-parameter logistic regression method (Bio-Plex Manager 2.0, Bio-Rad), and the IC50 calculated. […]

The test system of experiment [3] is TNFα. Kind of experiment: Inhibition of TNFα in vivo, LPS challenged mice, plasma ELISA. As to conditions: female Balb/c mice, p.o., LPS IP 400 μg/kg 1 hour after compound, plasma 1.5 hours after LPS. How it is done: Compounds are administered p.o. (30, 10, 3 and 1 mg/kg) to female Balb/c mice (6 mice/dose). 1 hour following compound administration at 4 doses (P.O. at volume of 0.1 mL/mouse; vehicle: 1% NaCMC/0.25% Tween-80 in water); mice are given an IP-injection of LPS at 400 μg/kg. 1.5 hours after LPS challenging, mice are anesthetized with isoflurane and blood is taken via cardiac puncture. TNFα-levels in the plasma are determined using ELISA kit from R&D Systems and dose response ED50 is determined.
The Threshold Minimum Effective Dose (TMED) 50 is the dose at which greater than or equal to 50% inhibition was achieved and statistically different from control/placebo.

SMILES strings stand for the structures.

As to `CS(=O)(=O)O.Cc1ccc(-n2nc(C(C)(C)C)cc2NC(=O)Nc2ccc(N3CCN(C(=O)c4c(F)cccc4F)CC3)nc2C)cc1` [Example 5, 1-(5-tert-Butyl-2-p-tolyl-2H-pyrazol-3-yl)-3-{6-[4-(2,6-difluoro-benzoyl)-piperazin-1-yl]-2-methyl-pyridin-3-yl}-urea methanesulfonate], in experiment [1], the “histology TMED 50” value turned out to be 5 mg/kg bid. In addition, in experiment [2], the IC50 amounted to 18 nM. For the same compound, in experiment [3], the “TMED50, suppression of TNFα in vivo” value turned out to be 2.24 mg/kg.

Values taken from patent US7652015B2, “Kinase inhibitors” (Eli Lilly and Company, priority 2006, dated 2010).
